From publication PMC11381307 (Frontiers in Pharmacology, 2024)

Key:
MRP2 = MRP2 (Homo sapiens, UniProt Q92887); test: biochemical
UGT1A9/2B7 = details: 50 μM, 96 h treatment; 100 μM substrate, 30 min
UGT1A1/1A3 = details: 50 μM, 96 h treatment; 100 μM substrate, 30 min
UGT = test: Human hepatocyte UGT induction study, conversion of MPA to MPAG; assay type: cell-based; details: 50 μM, 96 h treatment
Method: Cryopreserved human hepatocytes were recovered in a pre-warmed incubation medium, diluted to a viable cell density (∼0.7 × 10^6 cells/mL) using a plating medium, followed by the addition of 100 μL hepatocytes into each well of a collagen I-coated 96-well plate. The cell monolayer was formed after an overnight incubation period at 37°C under 5%CO2. The plating medium was then replaced with an incubation medium for further culture. On the second day, an incubation medium containing different concentrations of either compound, the inducer omeprazole (final concentration of 50 μM), or vehicle (0.1% [v/v] dimethyl sulfoxide [DMSO]). […] At the end of the incubation period, the medium was replaced with a substrate for UGT and MPA. Following a further incubation of 15 or 30 min at 37°C under 5% CO2, 100 μL of the reaction medium was transferred to 400 μL of ice-cold methanol containing internal standard (IS) to terminate the reaction. Finally, the supernatant was collected after centrifugation at 4,000 rpm for 10 min and analyzed for glucuronide formation using liquid chromatography-mass spectrometry (LC-MS).
The formation of glucuronide metabolites, as determined with LC-MS, was used to calculate the formation rate linked to enzyme activity according to Equation 1. Formation rate pmol/10^6 cells/min=amount of glucuronide metabolites formation pmol/number of cells 10^6 cells×incubation time min (1)
The percentage of enzyme activity relative to the NC (%) was determined using Equation 2. Relative enzyme activity % of NC=formation rate in the compound−treated group/that in NC×100 (2)

Sequence of MRP2 (Q92887 whole entry): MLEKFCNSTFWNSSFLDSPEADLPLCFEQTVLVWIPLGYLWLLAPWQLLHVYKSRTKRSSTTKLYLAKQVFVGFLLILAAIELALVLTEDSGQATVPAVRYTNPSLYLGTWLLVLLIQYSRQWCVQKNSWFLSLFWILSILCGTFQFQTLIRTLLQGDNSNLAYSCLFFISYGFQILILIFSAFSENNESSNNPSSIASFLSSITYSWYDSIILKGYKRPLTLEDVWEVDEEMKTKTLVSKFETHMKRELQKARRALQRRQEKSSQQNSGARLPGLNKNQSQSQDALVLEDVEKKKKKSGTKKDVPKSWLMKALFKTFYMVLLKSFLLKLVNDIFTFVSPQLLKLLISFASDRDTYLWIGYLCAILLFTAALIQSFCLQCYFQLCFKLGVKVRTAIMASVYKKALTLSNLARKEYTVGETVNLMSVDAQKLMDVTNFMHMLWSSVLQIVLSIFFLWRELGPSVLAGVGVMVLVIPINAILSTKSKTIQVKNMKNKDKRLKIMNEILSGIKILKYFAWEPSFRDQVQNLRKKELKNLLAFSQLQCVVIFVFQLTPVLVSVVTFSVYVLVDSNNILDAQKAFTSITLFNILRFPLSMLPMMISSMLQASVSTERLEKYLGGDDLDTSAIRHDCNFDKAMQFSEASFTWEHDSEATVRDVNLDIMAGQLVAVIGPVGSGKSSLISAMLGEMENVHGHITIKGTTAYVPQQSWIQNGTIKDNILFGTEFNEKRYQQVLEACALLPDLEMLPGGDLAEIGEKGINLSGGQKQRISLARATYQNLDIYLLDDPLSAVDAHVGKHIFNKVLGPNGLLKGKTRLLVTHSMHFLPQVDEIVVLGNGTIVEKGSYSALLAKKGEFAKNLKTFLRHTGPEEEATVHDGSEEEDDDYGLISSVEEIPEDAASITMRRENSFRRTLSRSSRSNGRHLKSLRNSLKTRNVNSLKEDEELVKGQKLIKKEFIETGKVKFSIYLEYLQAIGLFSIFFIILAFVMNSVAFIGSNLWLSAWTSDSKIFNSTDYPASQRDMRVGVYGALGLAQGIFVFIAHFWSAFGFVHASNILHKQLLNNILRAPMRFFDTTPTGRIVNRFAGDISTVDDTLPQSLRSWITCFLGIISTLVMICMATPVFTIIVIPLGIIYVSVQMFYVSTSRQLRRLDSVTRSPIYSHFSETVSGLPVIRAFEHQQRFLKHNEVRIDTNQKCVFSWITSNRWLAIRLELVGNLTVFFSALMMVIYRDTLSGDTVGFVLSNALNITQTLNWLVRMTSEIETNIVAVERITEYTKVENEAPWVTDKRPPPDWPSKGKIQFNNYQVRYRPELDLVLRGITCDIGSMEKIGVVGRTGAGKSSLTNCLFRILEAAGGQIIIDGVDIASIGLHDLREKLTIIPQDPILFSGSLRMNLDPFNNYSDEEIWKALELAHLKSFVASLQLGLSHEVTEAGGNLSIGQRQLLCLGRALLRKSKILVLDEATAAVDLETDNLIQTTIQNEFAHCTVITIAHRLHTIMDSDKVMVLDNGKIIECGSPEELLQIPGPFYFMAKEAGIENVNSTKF

| IC50 (MRP2) [µM] | SMILES | 4-trifluoromethyl-7-hydroxycoumarin glucuronidation activity, % of NC (Mean) (UGT1A9/2B7) | β-estradiol glucuronidation activity, % of NC (Mean) (UGT1A1/1A3) | formation of MPAG, % of NC (Mean) (UGT) |
| --- | --- | --- | --- | --- |
| 17.6 | CCc1oc2ccccc2c1C(=O)c1cc(Br)c(O)c(Br)c1 [benzbromarone] |  |  |  |
|  | COc1ccc2[nH]c([S+]([O-])Cc3ncc(C)c(OC)c3C)nc2c1 (stereo not shown) [omeprazole] | 145 % of NC | 243 % of NC | 110 % of NC |
